The numbers were not newly measured in patent publication US20240398793A1, “Methods of Treating Lymphedema” (Celltaxis, LLC, priority 2021, published 2024), which cites them from elsewhere.

Molecules are shown by their SMILES. Entries after “also recorded” stand apart in the source; their conditions may differ.

Data set [1] addresses T1, LTA4H aminopeptidase (Homo sapiens (Human), UniProt P09960). The settings on record: read-out: Aminopeptidase IC50 ± SEM; cited from earlier work.
In a further data set the target is LTA4H epoxide hydrolase (Homo sapiens (Human), UniProt P09960). The conditions noted are these: read-out: EH (Epoxide Hydrolase) IC50 ± SEM; cited from earlier work.
Sequence of LTA4H epoxide hydrolase (P09960 whole entry): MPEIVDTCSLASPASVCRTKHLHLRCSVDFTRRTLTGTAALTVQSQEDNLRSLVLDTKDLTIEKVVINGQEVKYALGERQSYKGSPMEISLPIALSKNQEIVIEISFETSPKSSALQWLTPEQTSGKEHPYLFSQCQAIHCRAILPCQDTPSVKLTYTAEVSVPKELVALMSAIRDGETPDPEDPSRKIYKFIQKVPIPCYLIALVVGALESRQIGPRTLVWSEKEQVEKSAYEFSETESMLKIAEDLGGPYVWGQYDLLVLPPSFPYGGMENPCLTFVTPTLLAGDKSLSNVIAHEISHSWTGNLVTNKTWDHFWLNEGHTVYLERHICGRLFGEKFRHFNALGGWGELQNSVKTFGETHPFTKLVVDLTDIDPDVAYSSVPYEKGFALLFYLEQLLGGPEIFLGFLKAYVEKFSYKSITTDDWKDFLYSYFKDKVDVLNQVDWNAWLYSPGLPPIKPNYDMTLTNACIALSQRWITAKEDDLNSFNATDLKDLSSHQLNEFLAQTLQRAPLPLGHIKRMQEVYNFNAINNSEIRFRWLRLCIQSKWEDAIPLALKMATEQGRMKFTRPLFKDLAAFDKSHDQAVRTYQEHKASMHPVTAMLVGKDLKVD
Data set [2] deals with lymphedema of the lower limb. The settings on record: Phase 2, lymphedema of the lower limb; cited from earlier work.
In data set [3] the target is T1, LTA4H aminopeptidase. The settings on record: Bhatt et al. (2017); Inoi et al. (1995); cited from earlier work.
In a further data set the test system is aminopeptidases. The conditions noted are these: Bhatt et al. (2017); Inoi et al. (1995); cited from earlier work.
Data set [4] relates to experimental acquired lymphedema. The conditions noted are these: cited from earlier work.
A further data set deals with human lymphedema. The settings on record: adult lymphedema subjects, open-label and placebo-controlled pilot; cited from earlier work.

T1 sequence (P09960 whole entry): as above

As usually defined, the IC50 is the concentration needed to halve the response being measured. For the compound `CC(=O)Oc1ccc(/C=C/c2cc(OC(C)=O)cc(OC(C)=O)c2)cc1` [Compound 4], at LTA4H aminopeptidase [1], the IC50 is over 100 µM. Consider `COc1cc(O)cc(CCc2ccc(O)cc2)c1` [Compound 6], for which the IC50 on LTA4H aminopeptidase [1] was over 100 µM. As for `CCOc1cc(O)cc(CCc2ccc(O)cc2)c1` [Compound 7], at LTA4H aminopeptidase [1], the IC50 was over 100 µM. With `COc1cc(O)cc(CCc2cccc(O)c2)c1` [Compound 8], at LTA4H aminopeptidase [1], the concentration for half-maximal inhibition (IC50) was over 100 µM.

In the case of `COc1cc(O)cc(CCc2ccccc2O)c1` [Compound 9], the IC50 on LTA4H aminopeptidase [1] is over 100 µM.

For `O=C(Cc1ccc(O)cc1)c1ccc(O)cc1O` [Compound 10], the half-maximal inhibitory concentration (IC50) on LTA4H aminopeptidase [1] is over 100 µM. As to `O=c1c(-c2ccc(O)cc2)coc2cc(O)ccc12` [Compound 11], on LTA4H aminopeptidase [1], the IC50 is over 100 µM. With `O=c1c(-c2ccc(O)cc2)coc2c(O)cccc12` [Compound 12], the IC50 on LTA4H epoxide hydrolase was 7.3 ± 0.8 µM; on LTA4H aminopeptidase [1] it was 62.7 ± 13.3 µM. In the case of `O=c1c(-c2ccccc2)coc2cc(O)ccc12` [Compound 13], the 50% inhibitory concentration (IC50) at LTA4H aminopeptidase [1] was over 100 µM. As to `O=c1c(-c2ccc(O)cc2)coc2c3c(ccc12)OCO3` [Compound 14], the IC50 was 20.6 ± 24 µM on LTA4H epoxide hydrolase and 20.6 ± 3.3 µM on LTA4H aminopeptidase [1]. With `Cc1ccc2c(=O)c(-c3ccc(O)cc3)coc2c1O` [Compound 15], the IC50 at LTA4H aminopeptidase [1] was 69.2 ± 10.9 µM. Consider `CC(C)C[C@H](NC(=O)[C@@H](O)[C@H](N)Cc1ccccc1)C(=O)O` [Ubenimex], for which the “improvement in skin thickness, limb volume and bioimpedance over placebo” value in data set [2] is given as “did not identify an improvement”. At LTA4H aminopeptidase [3], the LTA4H selectivity result was “non-selective LTA4H inhibitor”. Moreover, the aminopeptidase inhibition spectrum entry in the data set on aminopeptidases is listed as “broad spectrum aminopeptidase inhibitor”. Also, in data set [4] (murine model of lymphedema), the “edema, lymphatic function, lymphatic architecture” value was “reversed edema, improved lymphatic function, and restored lymphatic architecture”. As for `CC(C(=O)O)c1cccc(C(=O)c2ccccc2)c1` (stereo not shown) [ketoprofen], in the data set with human lymphedema, the “skin thickness and cutaneous histopathology” value is recorded as “salutary effects; also recorded: improve skin thickness”. The lymphedema disease burden result in data set [4] (mice, systemic administration) was “documented reversal of disease burden; also recorded: disease burden was reversed”.
